Common to all, as to assay: kinome screen (33PanQinase)
Common to all, as to format: biochemical

In one experiment the target is T1, AMPKα1 (Homo sapiens, UniProt Q13131).
T1 construct: purchased Reaction Biology Europe GmbH (formerly ProQinase)
How it is done:
(§1) The Kinome Screening was performed by Reaction Biology Europe GmbH (http://reactionbiology.com; Freiburg i. Br., Germany).

The target in another experiment is T2, CK1Δ (Homo sapiens, UniProt P48730).
T2 construct: purchased Reaction Biology Europe GmbH (formerly ProQinase)
T2 sequence (P48730 whole entry, stated change not applied): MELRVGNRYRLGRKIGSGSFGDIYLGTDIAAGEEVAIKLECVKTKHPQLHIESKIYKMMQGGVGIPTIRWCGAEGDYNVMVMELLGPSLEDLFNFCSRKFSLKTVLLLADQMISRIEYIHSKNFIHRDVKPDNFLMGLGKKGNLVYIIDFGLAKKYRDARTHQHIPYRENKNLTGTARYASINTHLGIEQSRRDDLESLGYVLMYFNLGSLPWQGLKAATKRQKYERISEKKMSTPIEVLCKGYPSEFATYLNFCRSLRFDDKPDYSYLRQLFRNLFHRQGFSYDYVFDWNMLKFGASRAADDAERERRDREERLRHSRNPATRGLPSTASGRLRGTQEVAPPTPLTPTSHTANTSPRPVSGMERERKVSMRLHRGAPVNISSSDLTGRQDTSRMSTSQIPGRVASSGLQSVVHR
How it is done:
as §1

The target in the next experiment is T3, DYRK1B (Homo sapiens, UniProt Q9Y463).
T3 construct: purchased Reaction Biology Europe GmbH (formerly ProQinase)
T3 sequence (Q9Y463 whole entry): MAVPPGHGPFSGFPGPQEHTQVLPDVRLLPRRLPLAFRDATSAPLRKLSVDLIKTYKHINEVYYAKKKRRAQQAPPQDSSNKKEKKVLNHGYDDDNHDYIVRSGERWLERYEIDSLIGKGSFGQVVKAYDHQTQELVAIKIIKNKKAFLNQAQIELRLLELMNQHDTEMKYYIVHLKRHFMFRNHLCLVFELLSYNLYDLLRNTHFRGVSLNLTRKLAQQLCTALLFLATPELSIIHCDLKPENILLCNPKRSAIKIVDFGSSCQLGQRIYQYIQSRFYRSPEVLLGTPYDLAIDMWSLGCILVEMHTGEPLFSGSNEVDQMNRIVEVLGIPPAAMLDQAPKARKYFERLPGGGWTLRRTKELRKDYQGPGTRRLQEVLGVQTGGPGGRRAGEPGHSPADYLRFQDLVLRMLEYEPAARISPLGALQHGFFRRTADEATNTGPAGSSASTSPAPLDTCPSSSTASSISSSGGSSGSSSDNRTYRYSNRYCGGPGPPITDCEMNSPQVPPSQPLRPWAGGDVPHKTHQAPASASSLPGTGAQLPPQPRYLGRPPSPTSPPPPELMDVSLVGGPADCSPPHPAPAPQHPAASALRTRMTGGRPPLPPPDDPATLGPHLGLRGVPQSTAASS
How it is done: as §1

A further experiment concerns the target T4, EPHA3 (Homo sapiens, UniProt P29320).
T4 construct: purchased Reaction Biology Europe GmbH (formerly ProQinase)
T4 sequence (P29320 21-983): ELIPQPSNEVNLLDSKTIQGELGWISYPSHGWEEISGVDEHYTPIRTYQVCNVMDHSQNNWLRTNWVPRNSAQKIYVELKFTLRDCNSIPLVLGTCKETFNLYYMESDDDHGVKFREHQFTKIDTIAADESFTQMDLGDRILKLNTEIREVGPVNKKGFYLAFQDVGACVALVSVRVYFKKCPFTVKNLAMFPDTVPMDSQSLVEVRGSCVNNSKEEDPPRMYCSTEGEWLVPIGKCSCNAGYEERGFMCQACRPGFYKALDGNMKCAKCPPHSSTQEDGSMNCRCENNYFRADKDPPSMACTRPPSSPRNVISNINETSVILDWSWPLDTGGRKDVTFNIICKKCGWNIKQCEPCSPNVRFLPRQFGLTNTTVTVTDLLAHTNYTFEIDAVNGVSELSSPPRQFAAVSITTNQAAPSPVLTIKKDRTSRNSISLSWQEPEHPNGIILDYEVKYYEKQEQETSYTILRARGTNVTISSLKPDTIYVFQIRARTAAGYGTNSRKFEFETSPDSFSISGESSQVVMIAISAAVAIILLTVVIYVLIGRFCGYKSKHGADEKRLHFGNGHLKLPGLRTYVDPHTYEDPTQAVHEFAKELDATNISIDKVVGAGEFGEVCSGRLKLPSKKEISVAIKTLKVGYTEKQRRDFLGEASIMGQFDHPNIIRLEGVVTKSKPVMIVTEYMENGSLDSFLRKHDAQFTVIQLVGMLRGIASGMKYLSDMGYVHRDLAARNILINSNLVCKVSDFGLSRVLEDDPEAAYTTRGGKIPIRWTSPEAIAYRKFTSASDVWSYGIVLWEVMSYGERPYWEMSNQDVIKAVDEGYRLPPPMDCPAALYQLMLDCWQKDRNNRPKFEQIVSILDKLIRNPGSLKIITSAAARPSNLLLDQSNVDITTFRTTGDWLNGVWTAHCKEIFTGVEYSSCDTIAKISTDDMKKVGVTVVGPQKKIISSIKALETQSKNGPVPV
The protocol:
as §1

A further experiment has as its target T5, MARK2 (Homo sapiens, UniProt Q7KZI7).
T5 construct: purchased Reaction Biology Europe GmbH (formerly ProQinase)
The protocol: as §1

The target of a further experiment is T6, NEK4 (Homo sapiens, UniProt P51957).
T6 construct: purchased Reaction Biology Europe GmbH (formerly ProQinase)
T6 sequence (P51957 whole entry): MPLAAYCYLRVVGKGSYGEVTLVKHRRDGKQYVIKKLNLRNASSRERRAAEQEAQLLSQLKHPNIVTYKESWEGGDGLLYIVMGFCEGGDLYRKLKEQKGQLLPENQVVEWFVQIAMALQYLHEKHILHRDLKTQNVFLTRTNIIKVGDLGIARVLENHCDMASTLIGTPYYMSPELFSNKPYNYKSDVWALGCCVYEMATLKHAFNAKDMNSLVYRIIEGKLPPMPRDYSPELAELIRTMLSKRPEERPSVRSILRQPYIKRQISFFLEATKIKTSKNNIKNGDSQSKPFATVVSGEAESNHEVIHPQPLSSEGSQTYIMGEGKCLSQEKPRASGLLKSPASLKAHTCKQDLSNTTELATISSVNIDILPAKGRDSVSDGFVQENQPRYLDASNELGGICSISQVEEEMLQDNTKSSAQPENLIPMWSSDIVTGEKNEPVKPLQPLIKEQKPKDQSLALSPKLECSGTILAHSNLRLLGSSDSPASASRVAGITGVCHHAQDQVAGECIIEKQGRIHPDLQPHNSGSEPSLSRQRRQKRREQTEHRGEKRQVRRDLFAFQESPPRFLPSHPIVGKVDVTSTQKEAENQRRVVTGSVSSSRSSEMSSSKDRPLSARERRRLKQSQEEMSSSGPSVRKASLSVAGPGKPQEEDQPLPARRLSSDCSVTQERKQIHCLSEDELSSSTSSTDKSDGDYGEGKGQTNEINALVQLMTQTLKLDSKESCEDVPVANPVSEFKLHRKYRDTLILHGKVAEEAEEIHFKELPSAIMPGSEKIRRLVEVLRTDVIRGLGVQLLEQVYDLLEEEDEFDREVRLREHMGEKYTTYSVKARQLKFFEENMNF
How it is done: as §1

Another experiment addresses T7, PRKD2 (Homo sapiens, UniProt Q9BZL6).
T7 construct: purchased Reaction Biology Europe GmbH (formerly ProQinase)
T7 sequence (Q9BZL6 1-878): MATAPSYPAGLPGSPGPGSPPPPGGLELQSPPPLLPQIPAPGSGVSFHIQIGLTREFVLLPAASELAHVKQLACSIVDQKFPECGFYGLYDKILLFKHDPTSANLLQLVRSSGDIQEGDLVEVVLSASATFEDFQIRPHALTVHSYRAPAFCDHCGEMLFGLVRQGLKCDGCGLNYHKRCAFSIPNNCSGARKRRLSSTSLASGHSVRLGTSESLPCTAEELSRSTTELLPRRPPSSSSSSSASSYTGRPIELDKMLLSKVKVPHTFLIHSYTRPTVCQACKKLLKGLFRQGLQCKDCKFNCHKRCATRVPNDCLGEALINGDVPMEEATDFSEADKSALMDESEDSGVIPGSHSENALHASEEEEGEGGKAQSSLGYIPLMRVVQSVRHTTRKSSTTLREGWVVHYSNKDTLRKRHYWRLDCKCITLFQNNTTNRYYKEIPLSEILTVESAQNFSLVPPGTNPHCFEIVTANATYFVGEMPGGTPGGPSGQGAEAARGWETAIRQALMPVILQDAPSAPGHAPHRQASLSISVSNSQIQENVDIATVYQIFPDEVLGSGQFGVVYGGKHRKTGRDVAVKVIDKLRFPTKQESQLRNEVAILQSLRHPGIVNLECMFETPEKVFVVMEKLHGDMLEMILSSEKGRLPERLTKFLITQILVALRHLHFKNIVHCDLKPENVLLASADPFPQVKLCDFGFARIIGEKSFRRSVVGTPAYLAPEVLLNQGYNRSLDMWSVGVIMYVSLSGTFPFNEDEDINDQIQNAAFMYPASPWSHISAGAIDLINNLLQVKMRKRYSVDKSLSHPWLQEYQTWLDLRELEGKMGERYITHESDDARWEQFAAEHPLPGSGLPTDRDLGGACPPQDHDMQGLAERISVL
How it is done: as §1

Molecules are shown by their SMILES.

T1 sequence (Q13131 10-559 limits assumed): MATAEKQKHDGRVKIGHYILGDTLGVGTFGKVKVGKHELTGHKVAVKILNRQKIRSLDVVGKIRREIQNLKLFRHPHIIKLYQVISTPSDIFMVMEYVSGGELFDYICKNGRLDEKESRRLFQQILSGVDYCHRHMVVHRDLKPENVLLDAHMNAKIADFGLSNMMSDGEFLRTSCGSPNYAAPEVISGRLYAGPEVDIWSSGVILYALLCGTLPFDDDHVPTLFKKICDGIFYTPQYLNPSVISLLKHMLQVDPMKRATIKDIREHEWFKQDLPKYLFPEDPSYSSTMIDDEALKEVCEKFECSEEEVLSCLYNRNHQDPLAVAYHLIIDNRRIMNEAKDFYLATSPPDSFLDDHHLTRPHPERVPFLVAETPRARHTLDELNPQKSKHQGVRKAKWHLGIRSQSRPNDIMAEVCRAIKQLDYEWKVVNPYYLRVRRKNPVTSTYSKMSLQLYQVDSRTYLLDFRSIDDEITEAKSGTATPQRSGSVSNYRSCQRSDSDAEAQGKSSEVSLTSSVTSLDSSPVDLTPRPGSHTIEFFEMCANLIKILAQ
T5 sequence (Q7KZI7 whole entry): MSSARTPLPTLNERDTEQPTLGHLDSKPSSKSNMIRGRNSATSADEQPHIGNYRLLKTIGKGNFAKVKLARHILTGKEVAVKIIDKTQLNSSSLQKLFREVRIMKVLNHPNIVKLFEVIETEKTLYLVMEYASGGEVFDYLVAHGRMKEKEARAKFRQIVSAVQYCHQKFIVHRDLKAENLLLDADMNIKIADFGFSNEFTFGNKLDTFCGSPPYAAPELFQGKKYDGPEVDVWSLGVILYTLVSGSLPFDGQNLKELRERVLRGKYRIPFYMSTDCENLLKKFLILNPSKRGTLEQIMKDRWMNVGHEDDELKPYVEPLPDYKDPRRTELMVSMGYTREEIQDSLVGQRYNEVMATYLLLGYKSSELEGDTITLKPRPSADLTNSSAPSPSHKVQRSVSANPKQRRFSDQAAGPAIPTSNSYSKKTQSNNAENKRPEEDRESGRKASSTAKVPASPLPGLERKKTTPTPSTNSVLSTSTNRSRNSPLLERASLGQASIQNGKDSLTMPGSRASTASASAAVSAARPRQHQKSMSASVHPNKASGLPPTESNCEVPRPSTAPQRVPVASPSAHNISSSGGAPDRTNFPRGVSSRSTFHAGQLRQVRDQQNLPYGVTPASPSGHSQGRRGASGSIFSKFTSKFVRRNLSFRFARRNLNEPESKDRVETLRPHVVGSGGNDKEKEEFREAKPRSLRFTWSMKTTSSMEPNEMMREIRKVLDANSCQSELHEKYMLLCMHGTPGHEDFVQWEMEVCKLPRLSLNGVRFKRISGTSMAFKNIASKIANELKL

Take `c1ccc(CNc2cc(-c3c[nH]c4ncccc34)ccn2)cc1` [meriolin 36]: the residual kinase activity at AMPKα1 (0.3 µM) is listed as 57 % of control; on AMPKα1 (3 µM), 9 % of control; at CK1Δ (0.3 µM) it was 43 % of control; on CK1Δ (3 µM), 9 % of control; at DYRK1B (0.3 µM), 7 % of control; on DYRK1B (3 µM), 0 % of control. Besides, the residual kinase activity is given as 111 % of control on EPHA3 (0.3 µM); 103 % of control at EPHA3 (3 µM); 98 % of control at MARK2 (0.3 µM); 63 % of control on MARK2 (3 µM); 84 % of control at NEK4 (0.3 µM); 37 % of control on NEK4 (3 µM). Also, the residual kinase activity on PRKD2 (0.3 µM) was 68 % of control; at PRKD2 (3 µM), 25 % of control.
Turning to `COc1ccnc2[nH]cc(-c3cc(N)nc(N)c3)c12` [meriolin 16], the residual kinase activity is 108 % of control on AMPKα1 (0.03 µM); 78 % of control at AMPKα1 (0.3 µM); 77 % of control on CK1Δ (0.03 µM); 17 % of control on CK1Δ (0.3 µM); 8 % of control at DYRK1B (0.03 µM); 0 % of control on DYRK1B (0.3 µM). The residual kinase activity is 102 % of control on EPHA3 (0.03 µM); 94 % of control at EPHA3 (0.3 µM); 91 % of control at MARK2 (0.03 µM); 88 % of control on MARK2 (0.3 µM); 89 % of control at NEK4 (0.03 µM); 47 % of control on NEK4 (0.3 µM). The residual kinase activity was 87 % of control on PRKD2 (0.03 µM) and 37 % of control on PRKD2 (0.3 µM).
